What was measured:
[1] = molar enthalpy of vaporization or sublimation; details: Liquid, DSC
[2] = for Normal melting temperature: Crystal, DTA; for Normal boiling temperature: Liquid, not specified, probably DSC
[3] = Molar enthalpy of transition or fusion; details: Crystal; DSC
[4] = molar heat capacity at constant pressure; details: 101.33 kPa, Small sample (50 mg) DSC

Cc1cccc(N(c2cccc(C)c2)c2cccc(C)c2)c1 [3-methyl-N,N-bis(3-methylphenyl)benzenamine]
Details	molar enthalpy [kJ/mol]
[1], 567.99 K	37.6

Details	Molar enthalpy of transition or fusion [kJ/mol]	Normal boiling temperature [°C]	Normal melting temperature [°C]
[2]	–	294.84	39.81
[3]	13.1	–	–

[4]
Details	molar heat capacity at constant pressure [J/K/mol]
240 K, Crystal	1455.4
245 K, Crystal	1383
250 K, Crystal	1322.8
255 K, Crystal	1274.6
260 K, Crystal	1238.6
265 K, Crystal	1214.8
270 K, Crystal	1203
275 K, Crystal	1203.4
280 K, Crystal	1216
285 K, Crystal	1240.6
290 K, Crystal	1277.4
295 K, Crystal	1326.3
300 K, Crystal	1387.4
306 K, Crystal	1476.7
336 K, Liquid	1250.8
341 K, Liquid	1249.7
346 K, Liquid	1249.5
351 K, Liquid	1250.1
356 K, Liquid	1251.5
361 K, Liquid	1253.8
366 K, Liquid	1257
371 K, Liquid	1261
376 K, Liquid	1265.8
381 K, Liquid	1271.5

Cc1ccc(N(c2cccc(C)c2)c2cccc(C)c2)cc1 [3-methyl-N-(3-methylphenyl)-N-(4-methylphenyl)benzenamine]
Details	molar enthalpy [kJ/mol]
[1], 547.3 K	69.3

Details	Molar enthalpy of transition or fusion [kJ/mol]	Normal boiling temperature [°C]	Normal melting temperature [°C]
[2]	–	274.1	89.50
[3]	26.4	–	–

molar heat capacity at constant pressure [J/K/mol], [4]
Details	330 K	335 K	340 K	365 K	369 K	372 K
Crystal	114.18	117.34	98.12	–	–	–
Liquid	–	–	–	143.7	141.06	137.86

Cc1ccc(N(c2ccc(C)cc2)c2ccc(C)cc2)cc1 [tri-tolylamine]
Details	molar enthalpy [kJ/mol]
[1], 574.04 K	72.6

Details	Molar enthalpy of transition or fusion [kJ/mol]	Normal boiling temperature [°C]	Normal melting temperature [°C]
[2]	–	300.89	115.59
[3]	20	–	–

Cc1ccc(N(c2ccc(C)cc2)c2cccc(C)c2)cc1 [3-methyl-N,N-bis(4-methylphenyl)benzenamine]
Details	molar enthalpy [kJ/mol]
[1], 589.09 K	75.9

Details	Molar enthalpy of transition or fusion [kJ/mol]	Normal boiling temperature [°C]	Normal melting temperature [°C]
[2]	–	315.94	56.70
[3]	21.7	–	–

[4]
Details	molar heat capacity at constant pressure [J/K/mol]
298 K, Crystal	417.01
303 K, Crystal	369.25
308 K, Crystal	351.52
313 K, Crystal	363.76
318 K, Crystal	406.01
323 K, Crystal	478.26
325 K, Crystal	515.56
339 K, Liquid	442.71
343 K, Liquid	440.93
348 K, Liquid	438.63
353 K, Liquid	436.24
358 K, Liquid	433.8
363 K, Liquid	431.3
368 K, Liquid	428.71
373 K, Liquid	426.07
378 K, Liquid	423.34
383 K, Liquid	420.55
388 K, Liquid	417.68
393 K, Liquid	414.74
